Measurements: US20190001002A1, “DRUG DESIGN FOR APPLICATION-DEPENDENT PAYLOAD, CONTROLLED PHARMACOKINETIC DISTRIBUTION, AND RENAL CLEARANCE” (General Electric Company, priority 2017, published 2019)
Like-named read-outs stand apart in the source and are kept apart here.

How the values were obtained:
[1] = Contrast-enhanced liver CT scans of swine in fat-equivalent encasements, multi-reader image quality assessment; format: in vivo; settings: swine CT in adipose-equivalent encasements, relative to TaCZ, FIG. 6
Procedure: The scans were performed one day to one week apart, and the scan sequence was randomized. During scanning, the pigs were encased in plastic fat-equivalent encasements to emulate a range of large patient sizes. Scans were performed in the pigs' livers at several time points from 30 to 300 seconds after injection. Image quality at each time point was graded by radiologists using predefined criteria such as image contrast in specified vessels.
In FIG. 6, images 220 on the left were acquired using a conventional iodinated contrast agent, iopromide, while images 220 on the right were acquired using the TaCZ nanoparticle contrast agent described above. Vertically, the images are arranged based on patient size.
In FIG. 7, the results of the multi-reader assessment are provided in graphical form.

[2] = Pharmacokinetic modeling of active element (iodine or tantalum) concentration in pig blood/plasma after contrast agent injection; format: in vivo; settings: plasma, other: injection
Description: Given this illustration of endothelial permeability, it may be appreciated that, immediately after administration, small-molecule contrast agents begin to distribute from the blood pool into interstitial fluid. Due to this “distribution phase”, the concentration of the contrast agent in the blood pool becomes immediately diluted by a factor of two or more in the first minutes after injection. This is illustrated in FIG. 3 where the concentration of the contrast agent iopromide in pig plasma is illustrated as a function of time, with both a distribution phase and elimination phase being evident.
This distribution occurs at a relatively fast rate, with a half-life (T½a) on the order of minutes and is denoted as the distribution phase in FIG. 3. […] Therefore, the concentration of the molecule in the blood would decrease approximately four fold in much less than 10 minutes due to this initial distribution process alone. However, the drug is simultaneously cleared from the blood by the kidneys at a slower rate, with a T½ on the order of 1-2 hours (denoted as the elimination phase in FIG. 3), resulting in an additional lowering of the concentration in the blood.
In a separate analysis, PK modeling was obtained by analyzing the concentration of the active element (iodine or tantalum) in blood samples taken from 2 to 240 minutes after contrast agent injection. […]

- half-life ([2]; FIG. 3, read-out: distribution-phase half-life (T½a) in plasma): < 0.0833 h
- half-life ([2]; cleared from the blood by the kidneys, FIG. 3, read-out: clearance half-life T½ (elimination phase)): 1 to 2 h
Compound: COCC(=O)Nc1c(I)c(C(=O)NCC(O)CO)c(I)c(C(=O)N(C)CC(O)CO)c1I (stereo not drawn) [iopromide]
- image contrast enhancement as patient size (and X-ray energy) increases [1]: decreases
